Assay results: ChEMBL document CHEMBL1151757, “Synthesis, radiosynthesis, and biological evaluation of fluorine-18-labeled 2beta-carbo(fluoroalkoxy)-3beta-(3'-((Z)-2-haloethenyl)phenyl)nortropanes: candidate radioligands for in vivo imaging of the serotonin transporter with positron emission tomography” (J Med Chem, 2008)

Assays:
[1] = Ratio of drug uptake in pons to cerebellum in anesthetized cynomolgus monkey after 18.5 mins postinjection; type: ADME, organism-based, Macaca fascicularis; conditions: in vivo
[2] = Ratio of drug uptake in medulla to cerebellum in anesthetized cynomolgus monkey after 0.5 mins postinjection; type: ADME, organism-based, Macaca fascicularis; conditions: in vivo
[3] = Ratio of drug uptake in medulla to cerebellum in anesthetized cynomolgus monkey after 9.5 mins postinjection; type: ADME, organism-based, Macaca fascicularis; conditions: in vivo
[4] = Drug uptake in anesthetized cynomolgus monkey brain frontal lobe after 215 mins postinjection; type: ADME, organism-based, Macaca fascicularis; conditions: in vivo
Putamen [5] = assay: Drug uptake in anesthetized cynomolgus monkey brain putamen after 125 mins postinjection; type: ADME, organism-based, Macaca fascicularis; conditions: in vivo
Putamen [6] = assay: Drug uptake in anesthetized cynomolgus monkey brain putamen after 215 mins postinjection; type: ADME, organism-based, Macaca fascicularis; conditions: in vivo
Putamen [7] = assay: Drug uptake in anesthetized cynomolgus monkey brain putamen after 225 mins postinjection; type: ADME, organism-based, Macaca fascicularis; conditions: in vivo, 3.75 h
Putamen [8] = assay: Drug uptake in anesthetized cynomolgus monkey brain putamen after 235 mins postinjection; type: ADME, organism-based, Macaca fascicularis; conditions: in vivo
Thalamus [9] = assay: Drug uptake in anesthetized cynomolgus monkey brain thalamus after 0.5 mins postinjection; type: ADME, organism-based, Macaca fascicularis; conditions: in vivo
[10] = Ratio of drug uptake in frontal lobe to cerebellum in anesthetized cynomolgus monkey after 75 mins postinjection; type: ADME, organism-based, Macaca fascicularis; conditions: in vivo, 1.25 h
Pons [11] = assay: Drug uptake in anesthetized cynomolgus monkey brain pons after 2.5 mins postinjection; type: ADME, organism-based, Macaca fascicularis; conditions: in vivo
Pons [12] = assay: Drug uptake in anesthetized cynomolgus monkey brain pons after 3.5 mins postinjection; type: ADME, organism-based, Macaca fascicularis; conditions: in vivo
Pons [13] = assay: Drug uptake in anesthetized cynomolgus monkey brain pons after 65 mins postinjection; type: ADME, organism-based, Macaca fascicularis; conditions: in vivo
Pons [14] = assay: Drug uptake in anesthetized cynomolgus monkey brain pons after 125 mins postinjection; type: ADME, organism-based, Macaca fascicularis; conditions: in vivo
Medulla [15] = assay: Drug uptake in anesthetized cynomolgus monkey brain medulla after 3.5 mins postinjection; type: ADME, organism-based, Macaca fascicularis; conditions: in vivo
Medulla [16] = assay: Drug uptake in anesthetized cynomolgus monkey brain medulla after 9.5 mins postinjection; type: ADME, organism-based, Macaca fascicularis; conditions: in vivo
Medulla [17] = assay: Drug uptake in anesthetized cynomolgus monkey brain medulla after 27.5 mins postinjection; type: ADME, organism-based, Macaca fascicularis; conditions: in vivo
[18] = Ratio of drug uptake in putamen to cerebellum in anesthetized cynomolgus monkey after 35 mins postinjection; type: ADME, organism-based, Macaca fascicularis; conditions: in vivo
Medulla [19] = assay: Drug uptake in anesthetized cynomolgus monkey brain medulla after 155 mins postinjection; type: ADME, organism-based, Macaca fascicularis; conditions: in vivo
Medulla [20] = assay: Drug uptake in anesthetized cynomolgus monkey brain medulla after 165 mins postinjection; type: ADME, organism-based, Macaca fascicularis; conditions: in vivo, 2.75 h
[21] = Drug uptake in anesthetized cynomolgus monkey brain cerebellum after 12.5 mins postinjection; type: ADME, organism-based, Macaca fascicularis; conditions: in vivo
[22] = Drug uptake in anesthetized cynomolgus monkey brain occipital lobe after 0.5 mins postinjection; type: ADME, organism-based, Macaca fascicularis; conditions: in vivo
[23] = Ratio of drug uptake in putamen to cerebellum in anesthetized cynomolgus monkey after 215 mins postinjection; type: ADME, organism-based, Macaca fascicularis; conditions: in vivo
[24] = Ratio of drug uptake in thalamus to cerebellum in anesthetized cynomolgus monkey after 155 mins postinjection; type: ADME, organism-based, Macaca fascicularis; conditions: in vivo
Caudate [25] = assay: Drug uptake in anesthetized cynomolgus monkey brain caudate after 3.5 mins postinjection; type: ADME, organism-based, Macaca fascicularis, Caudate nucleus; conditions: in vivo
Caudate [26] = assay: Drug uptake in anesthetized cynomolgus monkey brain caudate after 35 mins postinjection; type: ADME, organism-based, Macaca fascicularis, Caudate nucleus; conditions: in vivo
Caudate [27] = assay: Drug uptake in anesthetized cynomolgus monkey brain caudate after 75 mins postinjection; type: ADME, organism-based, Macaca fascicularis, Caudate nucleus; conditions: in vivo, 1.25 h
Caudate [28] = assay: Drug uptake in anesthetized cynomolgus monkey brain caudate after 85 mins postinjection; type: ADME, organism-based, Macaca fascicularis, Caudate nucleus; conditions: in vivo
Caudate [29] = assay: Drug uptake in anesthetized cynomolgus monkey brain caudate after 125 mins postinjection; type: ADME, organism-based, Macaca fascicularis, Caudate nucleus; conditions: in vivo
Putamen [30] = assay: Drug uptake in anesthetized cynomolgus monkey brain putamen after 1.5 mins postinjection; type: ADME, organism-based, Macaca fascicularis; conditions: in vivo, 0.025 h
Thalamus [31] = assay: Drug uptake in anesthetized cynomolgus monkey brain thalamus after 4.5 mins postinjection; type: ADME, organism-based, Macaca fascicularis; set-up: unit not given here; conditions: in vivo, 0.075 h
Thalamus [32] = assay: Drug uptake in anesthetized cynomolgus monkey brain thalamus after 9.5 mins postinjection; type: ADME, organism-based, Macaca fascicularis; set-up: unit not given here; conditions: in vivo
Thalamus [33] = assay: Drug uptake in anesthetized cynomolgus monkey brain thalamus after 18.5 mins postinjection; type: ADME, organism-based, Macaca fascicularis; set-up: unit not given here; conditions: in vivo
Thalamus [34] = assay: Drug uptake in anesthetized cynomolgus monkey brain thalamus after 35 mins postinjection; type: ADME, organism-based, Macaca fascicularis; set-up: unit not given here; conditions: in vivo
Putamen [35] = assay: Drug uptake in anesthetized cynomolgus monkey brain putamen after 9.5 mins postinjection; type: ADME, organism-based, Macaca fascicularis; set-up: unit not given here; conditions: in vivo
Putamen [36] = assay: Drug uptake in anesthetized cynomolgus monkey brain putamen after 35 mins postinjection; type: ADME, organism-based, Macaca fascicularis; set-up: unit not given here; conditions: in vivo
Putamen [37] = assay: Drug uptake in anesthetized cynomolgus monkey brain putamen after 85 mins postinjection; type: ADME, organism-based, Macaca fascicularis; set-up: unit not given here; conditions: in vivo
Putamen [38] = assay: Drug uptake in anesthetized cynomolgus monkey brain putamen after 95 mins postinjection; type: ADME, organism-based, Macaca fascicularis; set-up: unit not given here; conditions: in vivo
Thalamus [39] = assay: Drug uptake in anesthetized cynomolgus monkey brain thalamus after 75 mins postinjection; type: ADME, organism-based, Macaca fascicularis; set-up: unit not given here; conditions: in vivo, 1.25 h
Thalamus [40] = assay: Drug uptake in anesthetized cynomolgus monkey brain thalamus after 135 mins postinjection; type: ADME, organism-based, Macaca fascicularis; set-up: unit not given here; conditions: in vivo, 2.25 h
Thalamus [41] = assay: Drug uptake in anesthetized cynomolgus monkey brain thalamus after 215 mins postinjection; type: ADME, organism-based, Macaca fascicularis; set-up: unit not given here; conditions: in vivo
Thalamus [42] = assay: Drug uptake in anesthetized cynomolgus monkey brain thalamus after 235 mins postinjection; type: ADME, organism-based, Macaca fascicularis; set-up: unit not given here; conditions: in vivo
Midbrain [43] = assay: Drug uptake in anesthetized cynomolgus monkey brain midbrain after 27.5 mins postinjection; type: ADME, organism-based, Macaca fascicularis; set-up: unit not given here; conditions: in vivo
Midbrain [44] = assay: Drug uptake in anesthetized cynomolgus monkey brain midbrain after 35 mins postinjection; type: ADME, organism-based, Macaca fascicularis; set-up: unit not given here; conditions: in vivo
Midbrain [45] = assay: Drug uptake in anesthetized cynomolgus monkey brain midbrain after 45 mins postinjection; type: ADME, organism-based, Macaca fascicularis; set-up: unit not given here; conditions: in vivo, 0.75 h
Midbrain [46] = assay: Drug uptake in anesthetized cynomolgus monkey brain midbrain after 75 mins postinjection; type: ADME, organism-based, Macaca fascicularis; set-up: unit not given here; conditions: in vivo, 1.25 h
Midbrain [47] = assay: Drug uptake in anesthetized cynomolgus monkey brain midbrain after 105 mins postinjection; type: ADME, organism-based, Macaca fascicularis; set-up: unit not given here; conditions: in vivo, 1.75 h
Midbrain [48] = assay: Drug uptake in anesthetized cynomolgus monkey brain midbrain after 115 mins postinjection; type: ADME, organism-based, Macaca fascicularis; set-up: unit not given here; conditions: in vivo
[49] = Ratio of drug uptake in midbrain to cerebellum in anesthetized cynomolgus monkey after 27.5 mins postinjection; type: ADME, organism-based, Macaca fascicularis; conditions: in vivo
[50] = Ratio of drug uptake in pons to cerebellum in anesthetized cynomolgus monkey after 185 mins postinjection; type: ADME, organism-based, Macaca fascicularis; conditions: in vivo
[51] = Ratio of drug uptake in medulla to cerebellum in anesthetized cynomolgus monkey after 185 mins postinjection; type: ADME, organism-based, Macaca fascicularis; conditions: in vivo
[52] = Ratio of drug uptake in occipital lobe to cerebellum in anesthetized cynomolgus monkey after 135 mins postinjection; type: ADME, organism-based, Macaca fascicularis; conditions: in vivo, 2.25 h
Pons [53] = assay: Drug uptake in anesthetized cynomolgus monkey brain pons after 185 mins postinjection; type: ADME, organism-based, Macaca fascicularis; conditions: in vivo
Pons [54] = assay: Drug uptake in anesthetized cynomolgus monkey brain pons after 205 mins postinjection; type: ADME, organism-based, Macaca fascicularis; conditions: in vivo
Medulla [55] = assay: Drug uptake in anesthetized cynomolgus monkey brain medulla after 185 mins postinjection; type: ADME, organism-based, Macaca fascicularis; conditions: in vivo
[56] = Drug uptake in anesthetized cynomolgus monkey brain occipital lobe after 195 mins postinjection; type: ADME, organism-based, Macaca fascicularis; conditions: in vivo, 3.25 h
[57] = Drug uptake in anesthetized cynomolgus monkey brain cerebellum after 205 mins postinjection; type: ADME, organism-based, Macaca fascicularis; conditions: in vivo
[58] = Ratio of drug uptake in frontal lobe to cerebellum in anesthetized cynomolgus monkey after 205 mins postinjection; type: ADME, organism-based, Macaca fascicularis; conditions: in vivo
Caudate [59] = assay: Drug uptake in anesthetized cynomolgus monkey brain caudate after 205 mins postinjection; type: ADME, organism-based, Macaca fascicularis, Caudate nucleus; conditions: in vivo
Putamen [60] = assay: Drug uptake in anesthetized cynomolgus monkey brain putamen after 185 mins postinjection; type: ADME, organism-based, Macaca fascicularis; conditions: in vivo
[61] = Ratio of drug uptake in putamen to cerebellum in anesthetized cynomolgus monkey after 3.5 mins postinjection; type: ADME, organism-based, Macaca fascicularis; conditions: in vivo

## O=C(OCC[18F])C1C2CCC(CC1c1cccc(/C=C\I)c1)N2 (configuration not stated)
[1]
  Ratio: 0.7
[2]
  Ratio: 1.6
[3]
  Ratio: 0.9
[4]
  Drug uptake: 1.51
Putamen [5]
  Drug uptake: 3.58
Putamen [6]
  Drug uptake: 2.53
Putamen [7]
  Drug uptake: 2.44
Putamen [8]
  Drug uptake: 2.35
Thalamus [9]
  Drug uptake: 0
[10]
  Ratio: 0.9
Pons [11]
  Drug uptake: 0.44
Pons [12]
  Drug uptake: 0.77
Pons [13]
  Drug uptake: 3.2
Pons [14]
  Drug uptake: 2.76
Medulla [15]
  Drug uptake: 1.08
Medulla [16]
  Drug uptake: 3.15
Medulla [17]
  Drug uptake: 3.97
[18]
  Ratio: 1.1
Medulla [19]
  Drug uptake: 2.98
Medulla [20]
  Drug uptake: 2.88
[21]
  Drug uptake: 3.71
[22]
  Drug uptake: 0
[23]
  Ratio: 1.8
[24]
  Ratio: 1.8
Caudate [25]
  Drug uptake: 0.79
Caudate [26]
  Drug uptake: 3.54
Caudate [27]
  Drug uptake: 3.62
Caudate [28]
  Drug uptake: 3.53
Caudate [29]
  Drug uptake: 3
Putamen [30]
  Drug uptake: 0.1
Thalamus [31]
  Drug uptake: 1.57
Thalamus [32]
  Drug uptake: 3.01
Thalamus [33]
  Drug uptake: 3.7
Thalamus [34]
  Drug uptake: 4.2
Putamen [35]
  Drug uptake: 3.07
Putamen [36]
  Drug uptake: 4.28
Putamen [37]
  Drug uptake: 4.16
Putamen [38]
  Drug uptake: 4.02
Thalamus [39]
  Drug uptake: 4.16
Thalamus [40]
  Drug uptake: 3.33
Thalamus [41]
  Drug uptake: 2.38
Thalamus [42]
  Drug uptake: 2.2
Midbrain [43]
  Drug uptake: 4.71
Midbrain [44]
  Drug uptake: 4.85
Midbrain [45]
  Drug uptake: 4.9
Midbrain [46]
  Drug uptake: 4.76
Midbrain [47]
  Drug uptake: 4.34
Midbrain [48]
  Drug uptake: 4.18
[49]
  Ratio: 1.1

## O=C(OCC[18F])C1C2CCC(CC1c1ccc(/C=C\I)cc1)N2 (configuration not stated)
[1]
  Ratio: 0.9
[50]
  Ratio: 2.6
[51]
  Ratio: 2.5
[4]
  Drug uptake: 1.6
[52]
  Ratio: 1.3
Putamen [5]
  Drug uptake: 4.34
Putamen [6]
  Drug uptake: 3.93
Putamen [7]
  Drug uptake: 3.79
Putamen [8]
  Drug uptake: 3.83
Thalamus [9]
  Drug uptake: 0
[10]
  Ratio: 0.9
Pons [11]
  Drug uptake: 0.36
Pons [12]
  Drug uptake: 0.67
Pons [13]
  Drug uptake: 3.35
Pons [53]
  Drug uptake: 3.44
Pons [54]
  Drug uptake: 3.34
Medulla [55]
  Drug uptake: 3.41
[56]
  Drug uptake: 1.82
[57]
  Drug uptake: 1.22
[58]
  Ratio: 1.4
Caudate [59]
  Drug uptake: 2.77
Putamen [60]
  Drug uptake: 4.01
Pons [14]
  Drug uptake: 3.56
Medulla [15]
  Drug uptake: 0.94
Medulla [16]
  Drug uptake: 2.45
Medulla [17]
  Drug uptake: 3.35
[61]
  Ratio: 1
[18]
  Ratio: 1.4
Medulla [19]
  Drug uptake: 3.73
Medulla [20]
  Drug uptake: 3.58
[21]
  Drug uptake: 2.13
[22]
  Drug uptake: 0
[23]
  Ratio: 3.3
[24]
  Ratio: 2.7
Caudate [25]
  Drug uptake: 0.56
Caudate [26]
  Drug uptake: 2.33
Caudate [27]
  Drug uptake: 2.98
Caudate [28]
  Drug uptake: 3.03
Caudate [29]
  Drug uptake: 3.09
Putamen [30]
  Drug uptake: 0.11
Thalamus [31]
  Drug uptake: 1.21
Thalamus [32]
  Drug uptake: 2.06
Thalamus [33]
  Drug uptake: 2.7
Thalamus [34]
  Drug uptake: 3.31
Putamen [35]
  Drug uptake: 2.38
Putamen [36]
  Drug uptake: 3.57
Putamen [37]
  Drug uptake: 4.32
Putamen [38]
  Drug uptake: 4.36
Thalamus [39]
  Drug uptake: 4.02
Thalamus [40]
  Drug uptake: 3.99
Thalamus [41]
  Drug uptake: 3.47
Thalamus [42]
  Drug uptake: 3.34
Midbrain [43]
  Drug uptake: 3.19
Midbrain [44]
  Drug uptake: 3.51
Midbrain [45]
  Drug uptake: 3.76
Midbrain [46]
  Drug uptake: 4.41
Midbrain [47]
  Drug uptake: 4.55
Midbrain [48]
  Drug uptake: 4.5
